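Growth conditions: 96-well plates. Treatment: test compound, 48 hours, 5 concentrations. Analysis: linear interpolation between bracketing concentrations; unreached endpoints set to highest concentration. GI50 marks 50% less growth.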 Activity calls are given as the source filed them. Cut-off read from the data, not from the text of the source: active = GI50 up to about 1.1 µM and inactive = higher.
Columns and labels:
Test in all cases: inhibition of tumour cell growth, NCI panel, 48 h
[1] = system: Malme-3M
[2] = system: SK-MEL-5
[3] = system: SN12C
[4] = system: RPMI-8226
[5] = system: NCI-H23
[6] = system: A498
[7] = system: OVCAR-4
[8] = system: SF-539
[9] = system: SK-MEL-28
[10] = system: A549
[11] = system: MOLT-4
[12] = system: IGROV-1
[13] = system: M19-MEL
[14] = system: HOP-92
[15] = system: SNB-75
[16] = system: SR
[17] = system: EKVX
[18] = system: OVCAR-3

Row | SMILES | GI50 [1] | GI50 [2] | GI50 [3] | GI50 [4] | GI50 [5] | GI50 [6] | GI50 [7] | GI50 [8] | GI50 [9] | GI50 [10] | GI50 [11] | GI50 [12] | GI50 [13] | GI50 [14] | GI50 [15] | GI50 [16] | GI50 [17] | GI50 [18]
1 | COc1ccc(C2S/C(=C\c3ccc(O)cc3)C(=O)N2NC(=O)Cc2ccccc2)cc1 (stereo unspecified) | > 100 µM (inactive) | > 100 µM (inactive) | > 100 µM (inactive) | > 100 µM (inactive) | > 100 µM (inactive) | > 100 µM (inactive) | > 100 µM (inactive) | > 100 µM (inactive) | > 100 µM (inactive) | > 100 µM (inactive) | > 100 µM (inactive) | > 100 µM (inactive) | > 100 µM (inactive) | > 100 µM (inactive) | 90.8 µM (inactive) | > 100 µM (inactive) |  | 
2 | CC(=O)N/C(=C\c1ccccc1/C=C(\NC(C)=O)c1nc2cc(C)c(C)cc2[nH]1)c1nc2cc(C)c(C)cc2[nH]1 | 21.7 µM (inactive) | 17.1 µM (inactive) | 17.1 µM (inactive) | 2.04 µM (inactive) | 8.17 µM (inactive) | 42.4 µM (inactive) |  | 19.7 µM (inactive) | 7.43 µM (inactive) | 28 µM (inactive) | 20.3 µM (inactive) | 26.5 µM (inactive) | 10.7 µM (inactive) | 8.36 µM (inactive) | 13.7 µM (inactive) | 0.689 µM (active) | 12.3 µM (inactive) | 3.73 µM (inactive)
3 | O=C(/C=C/C1C(=O)NC(=O)NC1=O)CC(=O)C(=O)Nc1cc(Cl)c(Cl)cc1Cl | > 100 µM (inactive) | > 100 µM (inactive) | > 100 µM (inactive) | > 100 µM (inactive) | > 100 µM (inactive) | > 100 µM (inactive) | > 100 µM (inactive) | > 100 µM (inactive) | > 100 µM (inactive) | > 100 µM (inactive) | > 100 µM (inactive) | > 100 µM (inactive) | > 100 µM (inactive) |  | > 100 µM (inactive) | > 100 µM (inactive) | > 100 µM (inactive) | > 100 µM (inactive)
4 | CCN1C(C)=NC2C(=O)c3ccccc3C(=O)C21 (stereo unspecified) | 40 µM (inactive) | 24.1 µM (inactive) | 40.8 µM (inactive) | 55.7 µM (inactive) | 50.7 µM (inactive) | > 100 µM (inactive) | 21 µM (inactive) | 40.3 µM (inactive) | > 100 µM (inactive) | 41.6 µM (inactive) | 43 µM (inactive) | 38.1 µM (inactive) | 34.8 µM (inactive) |  | 37.8 µM (inactive) | 52.5 µM (inactive) | > 10 µM (inactive) | 27.4 µM (inactive)
5 | CCC(=O)O[C@@H]1C2C(OC(C)=O)C34COC(C)([C@@H]3C3C(C[C@]3(C)OC(C)=O)[C@@H](OC(=O)c3ccccc3)C4=O)[C@H](OC(C)=O)[C@@]2(OC(C)=O)C[C@@H]1C (stereo partly specified) | 36.6 µM (inactive) | 13.5 µM (inactive) | > 100 µM (inactive) | > 100 µM (inactive) | 14.9 µM (inactive) |  | 21.1 µM (inactive) | 14.9 µM (inactive) | > 100 µM (inactive) | > 100 µM (inactive) | > 100 µM (inactive) | 13.7 µM (inactive) | 32.8 µM (inactive) | 14.7 µM (inactive) | 3.01 µM (inactive) | 54.1 µM (inactive) | 87.1 µM (inactive) | 21.6 µM (inactive)
6 | COC[C@@H]1Cc2cc(OC)c3c(c2[C@H](c2ccc(OC)c(OC)c2)[C@H]1COC)OCO3 [HYPOPHYLLANTHIN] | 78.9 µM (inactive) | > 10 µM (inactive) | > 100 µM (inactive) |  | > 100 µM (inactive) | > 100 µM (inactive) |  | 38.8 µM (inactive) | > 100 µM (inactive) | 69.8 µM (inactive) | > 100 µM (inactive) | > 100 µM (inactive) | > 100 µM (inactive) | 70 µM (inactive) | 28.1 µM (inactive) | > 100 µM (inactive) | > 100 µM (inactive) | > 100 µM (inactive)
7 | CCOC(=O)C1=C(C)N(NC(=O)OC)C2(N)N(NC(=O)OC)C(C)=C(C(=O)OCC)C12C#N (stereo unspecified) | > 100 µM (inactive) | > 100 µM (inactive) | > 100 µM (inactive) | > 100 µM (inactive) |  | > 100 µM (inactive) | > 100 µM (inactive) | > 100 µM (inactive) | > 100 µM (inactive) | > 100 µM (inactive) | > 100 µM (inactive) | > 100 µM (inactive) | > 100 µM (inactive) |  | > 100 µM (inactive) | > 100 µM (inactive) | > 100 µM (inactive) | > 100 µM (inactive)
8 | O=[N+]([O-])c1ccc(C2SCc3nc4ccccc4n32)cc1 (stereo unspecified) | 40.1 µM (inactive) | 17.4 µM (inactive) | 56.1 µM (inactive) |  | 26.7 µM (inactive) | 88.3 µM (inactive) | 76.9 µM (inactive) | > 100 µM (inactive) | > 100 µM (inactive) | 50.4 µM (inactive) | 28.1 µM (inactive) | 19.8 µM (inactive) | 81.8 µM (inactive) | 23.1 µM (inactive) |  | 53.6 µM (inactive) | 44.3 µM (inactive) | 
9 | OCC1O[C@H](O[C@@H]2CCCN3CC(O)C(O)[C@@H]23)C(O)C(O)C1O (stereo partly specified) | > 100 µM (inactive) | > 100 µM (inactive) | > 100 µM (inactive) |  | > 100 µM (inactive) | > 100 µM (inactive) | > 100 µM (inactive) | > 100 µM (inactive) | > 100 µM (inactive) | > 100 µM (inactive) | > 100 µM (inactive) | > 100 µM (inactive) | > 100 µM (inactive) | > 100 µM (inactive) | > 100 µM (inactive) | > 100 µM (inactive) | > 100 µM (inactive) | > 100 µM (inactive)
10 | CCNC1=Nc2ccccc2-n2c(nn3nc4ccccc4c23)N1CC |  | > 100 µM (inactive) | 77.4 µM (inactive) | 97.1 µM (inactive) | > 100 µM (inactive) | > 100 µM (inactive) | > 100 µM (inactive) | > 100 µM (inactive) | 94.2 µM (inactive) | > 100 µM (inactive) | 30.2 µM (inactive) | > 100 µM (inactive) | > 100 µM (inactive) | > 100 µM (inactive) | > 100 µM (inactive) | 34.8 µM (inactive) | > 100 µM (inactive) | 
11 | CC1(O)C=CC2CCC1C2O (stereo unspecified) | > 100 µM (inactive) | > 100 µM (inactive) | > 100 µM (inactive) | 28.2 µM (inactive) | > 100 µM (inactive) | > 100 µM (inactive) | > 100 µM (inactive) | > 100 µM (inactive) | > 100 µM (inactive) | 68.9 µM (inactive) | > 100 µM (inactive) | > 100 µM (inactive) | > 100 µM (inactive) |  | > 100 µM (inactive) | 23.7 µM (inactive) | > 100 µM (inactive) | > 100 µM (inactive)
